# Tests used:
# human 5-HT2Ccys receptor = target: T1, human 5-HT2Ccys receptor (Homo sapiens, UniProt P28335); assay: Two-electrode voltage-clamp recording of 5-HT-activated currents in Xenopus oocytes expressing 5-HT2Ccys; format: cell-based
# T1 construct: consisting of the entire coding region of the 5-HT2C receptor; expressed in transfected cells; host or cells: Xenopus laevis oocytes injected with cRNA
# T1 sequence (P28335 33-458): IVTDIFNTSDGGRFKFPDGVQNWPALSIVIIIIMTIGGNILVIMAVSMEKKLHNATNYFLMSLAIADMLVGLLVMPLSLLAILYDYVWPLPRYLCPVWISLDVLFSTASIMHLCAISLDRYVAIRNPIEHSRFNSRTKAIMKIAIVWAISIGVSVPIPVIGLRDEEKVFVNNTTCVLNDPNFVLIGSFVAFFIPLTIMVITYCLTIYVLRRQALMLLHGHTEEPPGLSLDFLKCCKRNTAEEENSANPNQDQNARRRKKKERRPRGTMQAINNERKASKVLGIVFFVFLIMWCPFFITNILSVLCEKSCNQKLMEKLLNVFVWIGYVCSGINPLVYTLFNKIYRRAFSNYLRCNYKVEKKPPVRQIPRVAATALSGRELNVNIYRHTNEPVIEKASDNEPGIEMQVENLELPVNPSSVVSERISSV
# human 5-HT2Cser receptor = target: T2, human 5-HT2Cser receptor (Homo sapiens, UniProt P28335); assay: Two-electrode voltage-clamp recording of 5-HT-activated currents in Xenopus oocytes expressing 5-HT2Cser; format: cell-based
# T2 construct: consisting of the entire coding region of the 5-HT2C receptor; expressed in transfected cells; host or cells: Xenopus laevis oocytes injected with cRNA
# T2 sequence (P28335 33-458): T1 sequence (P28335 33-458)
# [1] = 1 μM PPRZ, voltage-clamp at -70 mV
compound,measurement,setting,value
"Cl.c1ccc2c(N3CCNCC3)cccc2c1 [PPRZ, 1-(1-naphthyl) piperazine HCL]",effect on currents activated by 10 nM 5-HT,human 5-HT2Ccys receptor; [1],suppressed
same,reversibility of the effect of PPRZ on 5-HT-activated response,human 5-HT2Ccys receptor; after a 20 min wash,reversible
same,effect on currents activated by 10 nM 5-HT,human 5-HT2Cser receptor; [1],suppressed
same,reversibility of the effect of PPRZ on 5-HT-activated response,human 5-HT2Cser receptor; after a 20 min wash,reversible

# Source: US5654139A (The United States of America as represented by the …, priority 1994, dated 1997)
